Test system: Colo205 cells
Format: cell-based, human
Details: selinexor-treated cytoplasm vs control cytoplasm

O=C(/C=C\n1cnc(-c2cc(C(F)(F)F)cc(C(F)(F)F)c2)n1)NNc1cnccn1 [selinexor]
Differential protein expression, PLEKHS1 (Q5SXH7): 2.039
Differential protein expression, RSBN1 (Q5VWQ0): 100
Differential protein expression, ZMYM4 (Q5VZL5): 0.01
Differential protein expression, RPL7L1 (Q6DKI1): 0.463
Differential protein expression, DMKN (Q6E0U4): 0.02
Differential protein expression, NCAPH2 (Q6IBW4): 0.01
Differential protein expression, LIN54 (Q6MZP7): 0.426
Differential protein expression, POMZP3 (Q6PJE2): 100
Differential protein expression, CCDC137 (Q6PK04): 0.426
Differential protein expression, MPRIP (Q6WCQ1): 0.01
Differential protein expression, NCCRP1 (Q6ZVX7): 2.342
Differential protein expression, LPCAT2 (Q7L5N7): 2.194
Differential protein expression, CXXC5 (Q7LFL8): 0.01
Differential protein expression, KRT74 (Q7RTS7): 4.935
Differential protein expression, KRT28 (Q7Z3Y7): 2.439
Differential protein expression, KRT27 (Q7Z3Y8): 2.607
Differential protein expression, KRT25 (Q7Z3Z0): 2.607
Differential protein expression, MYH14 (Q7Z406): 2.01
Differential protein expression, KRT78 (Q8N1N4): 2.84
Differential protein expression, PIAS4 (Q8N2W9): 0.01
Differential protein expression, GPATCH11 (Q8N954): 100
Differential protein expression, KDM1B (Q8NB78): 0.01
Differential protein expression, RNF169 (Q8NCN4): 100
Differential protein expression, PHC3 (Q8NDX5): 100
Differential protein expression, PPHLN1 (Q8NEY8): 0.01
Differential protein expression, GDAP1 (Q8TB36): 2.559
Differential protein expression, CIP2A (Q8TCG1): 0.239
Differential protein expression, CHD6 (Q8TD26): 0.01
Differential protein expression, GPT2 (Q8TD30): 0.411
Differential protein expression, RB1CC1 (Q8TDY2): 100
Differential protein expression, ZNF384 (Q8TF68): 0.01
Differential protein expression, U2AF1L4 (Q8WU68): 2.738
Differential protein expression, TSEN15 (Q8WW01): 0.497
Differential protein expression, NIPSNAP1 (Q9BPW8): 0.499
Differential protein expression, SH2D3A (Q9BRG2): 100
Differential protein expression, WDR83 (Q9BRX9): 100
Differential protein expression, TPPP3 (Q9BW30): 2.408
Differential protein expression, LSM14B (Q9BX40): 0.437
Differential protein expression, TTYH3 (Q9C0H2): 0.47
Differential protein expression, BRD8 (Q9H0E9): 0.01
Differential protein expression, WWP1 (Q9H0M0): 2.549
Differential protein expression, TASP1 (Q9H6P5): 100
Differential protein expression, RPF2 (Q9H7B2): 2.588
Differential protein expression, CAAP1 (Q9H8G2): 100
Differential protein expression, BRD9 (Q9H8M2): 0.01
Differential protein expression, ING2 (Q9H160): 100
Differential protein expression, SDCBP2 (Q9H190): 2.885
Differential protein expression, EPB41L4B (Q9H329): 2.055
Differential protein expression, FOXP1 (Q9H334): 0.01
Differential protein expression, SP110 (Q9HB58): 0.01
Differential protein expression, PATZ1 (Q9HBE1): 100
Differential protein expression, SPC25 (Q9HBM1): 0.479
Differential protein expression, AGO4 (Q9HCK5): 2.165
Differential protein expression, TCF7L1 (Q9HCS4): 5.627
Differential protein expression, MLXIPL (Q9NP71): 0.379
Differential protein expression, TCF7L2 (Q9NQB0): 0.01
Differential protein expression, STRN4 (Q9NRL3): 100
Differential protein expression, RAD18 (Q9NS91): 100
Differential protein expression, DIAPH3 (Q9NSV4): 0.233
Differential protein expression, MBNL3 (Q9NUK0): 2.509
Differential protein expression, MRGBP (Q9NV56): 100
Differential protein expression, EXD2 (Q9NVH0): 2.016
Differential protein expression, ASF1B (Q9NVP2): 0.458
Differential protein expression, SDHAF2 (Q9NX18): 0.346
Differential protein expression, EHF (Q9NZC4): 0.01
Differential protein expression, MACROH2A2 (Q9P0M6): 100
Differential protein expression, SENP1 (Q9POU3): 0.01
Differential protein expression, m101L (Q9Q8J9): 2.679
Differential protein expression, m097R (Q9Q8K3): 100
Differential protein expression, m094R (Q9Q8K6): 0.01
Differential protein expression, m089L (Q9Q8L1): 0.01
Differential protein expression, m048L (Q9Q8P8): 2.287
Differential protein expression, m043L (Q9Q8Q3): 0.01
Differential protein expression, m042L (Q9Q8Q4): 0.01
Differential protein expression, m032R (Q9Q8R4): 100
Differential protein expression, DNAJB4 (Q9UDY4): 3.313
Differential protein expression, DAXX (Q9UER7): 100
Differential protein expression, MLX (Q9UH92): 0.453
Differential protein expression, ADGRE2 (Q9UHX3): 0.491
Differential protein expression, RASAL2 (Q9UJF2): 0.01
Differential protein expression, LEF1 (Q9UJU2): 5.627
Differential protein expression, ANAPC2 (Q9UJX6): 0.336
Differential protein expression, GGA2 (Q9UJY4): 0.442
Differential protein expression, CCNL1 (Q9UK58): 3.386
Differential protein expression, RALY (Q9UKM9): 2.03
Differential protein expression, YEATS2 (Q9ULM3): 100
Differential protein expression, NOB1 (Q9ULX3): 0.407
Differential protein expression, FZR1 (Q9UM11): 4.964
Differential protein expression, NOL7 (Q9UMY1): 0.431
Differential protein expression, LIMCH1 (Q9UPQ0): 0.01
Differential protein expression, AGAP1 (Q9UPQ3): 2.271
Differential protein expression, DNM3 (Q9UQ16): 100
Differential protein expression, JRKL (Q9Y4A0): 0.474
Differential protein expression, DCAF1 (Q9Y4B6): 0.482
Differential protein expression, UTP18 (Q9Y5J1): 0.493
Differential protein expression, ST14 (Q9Y5Y6): 2.934
Differential protein expression, RBMX2 (Q9Y388): 100
Differential protein expression, PSAT1 (Q9Y617): 0.469
Differential protein expression, SLC12A7 (Q9Y666): 0.497
Differential protein expression, mt6 (Q9YQ03): 0.01
Differential protein expression, GLE1 (Q53GS7): 0.329
Differential protein expression, INO80D (Q53TQ3): 100
Differential protein expression, NAIF1 (Q69Y17): 0.374
Differential protein expression, H3C13; H3C14; H3C15 (Q71DI3): 3.19
Differential protein expression, TADA2B (Q86TJ2): 0.246
Differential protein expression, RPS19BP1 (Q86WX3): 0.426
Differential protein expression, KRT73 (Q86Y46): 4.935
Differential protein expression, PBXIP1 (Q96AQ6): 2.168
Differential protein expression, INTS12 (Q96CB8): 100
Differential protein expression, LRRC58 (Q96CX6): 3.753
Differential protein expression, RBMXL1 (Q96E39): 100
Differential protein expression, MCRS1 (Q96EZ8): 0.01
Differential protein expression, PERP (Q96FX8): 2.002
Differential protein expression, LTV1 (Q96GA3): 0.288
Differential protein expression, SMARCD1 (Q96GM5): 0.376
Differential protein expression, ZNF668 (Q96K58): 0.01
Differential protein expression, RNPC3 (Q96LT9): 100
Differential protein expression, PWWP2A (Q96N64): 0.01
Differential protein expression, SERPINB12 (Q96P63): 3.145
Differential protein expression, SLC38A2 (Q96QD8): 0.262
Differential protein expression, PHF12 (Q96QT6): 100
Differential protein expression, SMC6 (Q96SB8): 0.01
Differential protein expression, CDK3 (Q00526): 0.01
Differential protein expression, ARL11 (Q969Q4): 2.014
Differential protein expression, U2AF1 (Q01081): 2.205
Differential protein expression, KRT76 (Q01546): 2.236
Differential protein expression, SP2 (Q02086): 0.01
Differential protein expression, PCDH1 (Q08174): 3.649
Differential protein expression, DSC1 (Q08554): 2.044
Differential protein expression, CDH17 (Q12864): 5.81
Differential protein expression, PRDM2 (Q13029): 0.499
Differential protein expression, KRR1 (Q13601): 2.698
Differential protein expression, AAMP (Q13685): 0.385
Differential protein expression, RUNX2 (Q13950): 0.192
Differential protein expression, CDK13 (Q14004): 2.192
Differential protein expression, TFDP2 (Q14188): 0.48

Source: patent US20250249056A1, “CANCER THERAPIES COMPRISING A NUCLEAR EXPORT INHIBITOR AND AN ONCOLYTIC VIRUS” (priority 2022, published 2025)
